{"source": "patent US9113629B2", "about": "“4-amino-6-(4-substituted-phenyl)-picolinates and 6-amino-2-(4-substituted-phenyl)-pyrimidine-4-carboxylates and their use as herbicides” (DOW AGROSCIENCES LLC, priority 2013, dated 2015)", "assay_in_all_cases": "Post-emergent Test III, herbicidal activity in wheat and barley", "type_in_all_cases": "in vivo", "conditions_in_all_cases": "Table 8, 21 d", "key": {"[1]": {"tested_on": "HORSS: barley, including spring and winter (Hordeum vulgare)", "summary_of_the_method": "(§1)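 GR20, GR50, GR80 and GR90 come from probit analysis of visual injury scores (0 = none, 100 = complete kill) taken 21 d after treatment. Foliar application was by track sprayer delivering 187 L/ha at five rates, from high down to 1/16×, onto greenhouse plants at the 2–3 leaf stage, with solvent-blank controls.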"}, "[2]": {"tested_on": "KCHSC: kochia (Kochia scoparia)", "summary_of_the_method": "as §1"}, "LAMSS": {"tested_on": "LAMSS", "summary_of_the_method": "as §1"}, "[3]": {"tested_on": "MATSS: scented mayweed (Matricaria chamomilla), pineappleweed (Matricaria matricarioides)", "summary_of_the_method": "as §1"}, "[4]": {"tested_on": "SASKR: Russian thistle (Salsola iberica)", "summary_of_the_method": "as §1"}, "[5]": {"tested_on": "TRZSS: wheat, including spring and winter (Triticum aestivum)", "summary_of_the_method": "as §1"}, "[6]": {"tested_on": "VERPE: bird's-eye speedwell (veronica persica)", "summary_of_the_method": "as §1"}, "[7]": {"tested_on": "VIOSS: wild pansy (Viola tricolor), field violet (Viola arvensis)", "summary_of_the_method": "as §1"}, "[8]": {"conditions": "dose for 20 percent growth reduction, probit analysis"}, "[9]": {"conditions": "dose for 50 percent growth reduction, probit analysis"}, "[10]": {"conditions": "dose for 80 percent growth reduction, probit analysis"}}, "data": [{"smiles": "Nc1cc(-c2ccc(Br)c(F)c2)nc(C(=O)O)c1Cl", "note": "[Compound 110, 4-Amino-6-(4-bromo-3-fluorophenyl)-3-chloropicolinic acid]", "values": [{"measurement": "pest or weed control at 35 g/ha", "setting": "[1]; Hordeum vulgare, post-emergence, 504 h, 35 g ai/ha, post-emergent, read-out: Visual Growth Reduction (%) 21 Days After Application HORSS", "result": "85 to 94", "unit": "%"}, {"measurement": "pest or weed control at 70 g/ha", "setting": "[1]; Hordeum vulgare, post-emergence, 504 h, 70 g ai/ha, post-emergent, read-out: Visual Growth Reduction (%) 21 Days After Application HORSS", "result": "95 to 100", "unit": "%"}, {"measurement": "GR20 HORSS", "setting": "[1]; [8]", "result": 1, "unit": "g ai/ha"}, {"measurement": "pest or weed control at 35 g/ha", "setting": "[2]; Bassia scoparia, post-emergence, 504 h, 35 g ai/ha, post-emergent, read-out: Visual Growth Reduction (%) 21 Days After Application KCHSC", "result": "95 to 100", "unit": "%"}, {"measurement": "pest or weed control at 70 g/ha", "setting": "[2]; Bassia scoparia, post-emergence, 504 h, 70 g ai/ha, post-emergent, read-out: Visual Growth Reduction (%) 21 Days After Application KCHSC", "result": "95 to 100", "unit": "%"}, {"measurement": "GR50 KCHSC", "setting": "[2]; [9]", "result": 1, "unit": "g ai/ha"}, {"measurement": "GR80 KCHSC", "setting": "[2]; [10]", "result": 1, "unit": "g ai/ha"}, {"measurement": "GR50 LAMSS", "setting": "LAMSS; [9]", "result": 1, "unit": "g ai/ha"}, {"measurement": "GR80 LAMSS", "setting": "LAMSS; [10]", "result": 1, "unit": "g ai/ha"}, {"measurement": "pest or weed control at 35 g/ha", "setting": "LAMSS; post-emergence, 504 h, 35 g ai/ha, post-emergent, read-out: Visual Growth Reduction (%) 21 Days After Application LAMSS", "result": "95 to 100", "unit": "%"}, {"measurement": "pest or weed control at 70 g/ha", "setting": "LAMSS; post-emergence, 504 h, 70 g ai/ha, post-emergent, read-out: Visual Growth Reduction (%) 21 Days After Application LAMSS", "result": "95 to 100", "unit": "%"}, {"measurement": "pest or weed control at 35 g/ha", "setting": "[3]; Matricaria chamomilla, post-emergence, 504 h, 35 g ai/ha, post-emergent, read-out: Visual Growth Reduction (%) 21 Days After Application MATSS", "result": "60 to 74", "unit": "%"}, {"measurement": "pest or weed control at 70 g/ha", "setting": "[3]; Matricaria chamomilla, post-emergence, 504 h, 70 g ai/ha, post-emergent, read-out: Visual Growth Reduction (%) 21 Days After Application MATSS", "result": "85 to 94", "unit": "%"}, {"measurement": "GR50 MATSS", "setting": "[3]; [9]", "result": 10, "unit": "g ai/ha"}, {"measurement": "GR80 MATSS", "setting": "[3]; [10]", "result": 37, "unit": "g ai/ha"}, {"measurement": "pest or weed control at 35 g/ha", "setting": "[4]; Salsola tragus, post-emergence, 504 h, 35 g ai/ha, post-emergent, read-out: Visual Growth Reduction (%) 21 Days After Application SASKR", "result": "75 to 84", "unit": "%"}, {"measurement": "pest or weed control at 70 g/ha", "setting": "[4]; Salsola tragus, post-emergence, 504 h, 70 g ai/ha, post-emergent, read-out: Visual Growth Reduction (%) 21 Days After Application SASKR", "result": "85 to 94", "unit": "%"}, {"measurement": "GR50 SASKR", "setting": "[4]; [9]", "result": 1, "unit": "g ai/ha"}, {"measurement": "GR80 SASKR", "setting": "[4]; [10]", "result": 30, "unit": "g ai/ha"}, {"measurement": "GR20 TRZSS", "setting": "[5]; [8]", "result": 1, "unit": "g ai/ha"}, {"measurement": "pest or weed control at 35 g/ha", "setting": "[5]; Triticum aestivum, post-emergence, 504 h, 35 g ai/ha, post-emergent, read-out: Visual Growth Reduction (%) 21 Days After Application TRZSS", "result": "85 to 94", "unit": "%"}, {"measurement": "pest or weed control at 70 g/ha", "setting": "[5]; Triticum aestivum, post-emergence, 504 h, 70 g ai/ha, post-emergent, read-out: Visual Growth Reduction (%) 21 Days After Application TRZSS", "result": "85 to 94", "unit": "%"}, {"measurement": "GR50 VERPE", "setting": "[6]; [9]", "result": ">140", "unit": "g ai/ha"}, {"measurement": "GR80 VERPE", "setting": "[6]; [10]", "result": ">140", "unit": "g ai/ha"}, {"measurement": "pest or weed control at 35 g/ha", "setting": "[6]; Veronica persica, post-emergence, 504 h, 35 g ai/ha, post-emergent, read-out: Visual Growth Reduction (%) 21 Days After Application VERPE", "result": "0 to 29", "unit": "%"}, {"measurement": "pest or weed control at 70 g/ha", "setting": "[6]; Veronica persica, post-emergence, 504 h, 70 g ai/ha, post-emergent, read-out: Visual Growth Reduction (%) 21 Days After Application VERPE", "result": "0 to 29", "unit": "%"}, {"measurement": "GR50 VIOSS", "setting": "[7]; [9]", "result": 51, "unit": "g ai/ha"}, {"measurement": "GR80 VIOSS", "setting": "[7]; [10]", "result": 144, "unit": "g ai/ha"}, {"measurement": "pest or weed control at 35 g/ha", "setting": "[7]; Viola tricolor, post-emergence, 504 h, 35 g ai/ha, post-emergent, read-out: Visual Growth Reduction (%) 21 Days After Application VIOSS", "result": "30 to 44", "unit": "%"}, {"measurement": "pest or weed control at 70 g/ha", "setting": "[7]; Viola tricolor, post-emergence, 504 h, 70 g ai/ha, post-emergent, read-out: Visual Growth Reduction (%) 21 Days After Application VIOSS", "result": "60 to 74", "unit": "%"}]}]}
